According to ChEMBL document CHEMBL3832761, “MMV Pathogen Box Bioactivity Data” (2017):
Values after ≈ are worked out from the molar mass of the structure shown.

What was measured:
Plasmodium falciparum [1] = assay: Antimalarial activity: Asexual Blood Stage Plasmodium falciparum 3D7 IC50 (uM); type: functional, organism-based
Plasmodium falciparum [2] = assay: Antimalarial activity: Asexual Blood Stage Plasmodium falciparum Dd2 IC50 (uM); type: functional, organism-based
Plasmodium falciparum [3] = assay: Antimalarial activity: Gametocytes Plasmodium falciparum NF54 Gametocytes Stage V IC50 (uM); type: functional, organism-based
HepG2 [4] = assay: HepG2 inhibition at 10 uM (%) Cytotoxicity; type: functional; settings: Homo sapiens
[5] = tested on: Mycobacterium tuberculosis; assay: AntiMycobacterium tuberculosis activity 2-week Alamar Blue 7H9/ADC/Tw MIC (uM); type: functional; settings: 336 h
HepG2 [6] = assay: HepG2 galactose CC50 (uM) Cytotoxicity; type: functional
[7] = tested on: Mycobacterium tuberculosis; assay: AntiMycobacterium tuberculosis activity 1-week 7H9/cholesterol/BSA/Tx MIC (uM); type: functional; settings: 168 h
[8] = tested on: Mycobacterium tuberculosis; assay: (§1) AntiMycobacterium tuberculosis activity day 10 in 7H9/2.5mM butyrate/pH6/0.1mM nitrite MIC90 (uM); type: functional; settings: 240 h
[9] = tested on: Mycobacterium tuberculosis; assay: as §1; type: functional; settings: 240 h; remark: listed apart in the source
[10] = tested on: Mycobacterium tuberculosis; assay: AntiMycobacterium tuberculosis activity day 21 MIC99 in 7H9/2.5mM butyrate/pH6/0.1mM nitrite MIC99 (uM); type: functional; settings: 504 h
[11] = tested on: Mycobacterium tuberculosis; assay: AntiMycobacterium tuberculosis activity day 21 in 7H9/2.5mM butyrate/pH6/0.1mM nitrite MIC90 (uM); type: functional; settings: 504 h
[12] = tested on: Mycobacterium tuberculosis; assay: AntiMycobacterium tuberculosis activity 1-week 7H9/ADC/Tw MIC (uM); type: functional; settings: 168 h
[13] = tested on: Mycobacterium tuberculosis; assay: AntiMycobacterium tuberculosis activity 1-week GAST/Fe MIC (uM); type: functional; settings: 168 h
[14] = tested on: Mycobacterium tuberculosis; assay: AntiMycobacterium tuberculosis activity 2-week 7H9/ADC/Tw MIC (uM); type: functional; settings: 336 h
HepG2 [15] = assay: HepG2 glucose CC50 (uM) Cytotoxicity; type: functional
[16] = tested on: Mycobacterium tuberculosis; assay: AntiMycobacterium tuberculosis activity 2-week Alamar Blue 7H9/cholesterol/BSA/Tx MIC (uM); type: functional; settings: 336 h
[17] = tested on: Mycobacterium tuberculosis; assay: AntiMycobacterium tuberculosis activity 2-week 7H9/glucose/BSA/Tx MIC (uM); type: functional; settings: 336 h
[18] = tested on: Mycobacterium tuberculosis; assay: AntiMycobacterium tuberculosis activity 2-week 7H9/DPPC/cholesterol/BSA/Tx MIC (uM); type: functional; settings: 336 h
[19] = tested on: Mycobacterium tuberculosis; assay: AntiMycobacterium tuberculosis activity 1-week 7H9/DPPC/cholesterol/BSA/Tx MIC (uM); type: functional; settings: 168 h
[20] = tested on: Mycobacterium tuberculosis; assay: AntiMycobacterium tuberculosis activity 2-week GAST/Fe MIC (uM); type: functional; settings: 336 h
[21] = tested on: Mycobacterium tuberculosis; assay: AntiMycobacterium tuberculosis activity 1-week 7H9/glucose/BSA/Tx MIC (uM); type: functional; settings: 168 h
[22] = tested on: Mycobacterium tuberculosis; assay: AntiMycobacterium tuberculosis activity Non-Replicating form: Average MIC90 (uM); type: functional
[23] = tested on: Mycobacterium tuberculosis; assay: AntiMycobacterium tuberculosis activity Replicating form: Average MIC90 (uM); type: functional
HepG2 [24] = assay: HepG2 CC50 (uM) Cytotoxicity; type: functional; settings: Homo sapiens

Cc1ccc(-c2nc(CN(Cc3ccccn3)C(C)C)cs2)o1
IC50 (Plasmodium falciparum [1]): > 2 µM
IC50 (Plasmodium falciparum [2]): > 2 µM
IC50 (Plasmodium falciparum [3]): 0.45 µM
inhibition at 10 µM (HepG2 [4]): 47%

CN1CCN(c2cc(-c3ccc(F)cc3)nc(-c3ccncc3)n2)CC1
MIC [5]: 12.5 µM (≈ 4.37 µg/mL)
CC50 (HepG2 [6]; Homo sapiens, HepG2): > 50 µM
MIC [7]: 12.5 µM (≈ 4.37 µg/mL)
MIC90 [8]: 6.25 µM (≈ 2.18 µg/mL)
MIC90 [9]: > 50 µM
MIC [10]: > 50 µM
MIC90 [11]: 12.5 µM (≈ 4.37 µg/mL)
MIC [12]: 37 µM (≈ 12.9 µg/mL)
MIC [13]: 19 µM (≈ 6.64 µg/mL)
MIC [14]: 25 µM (≈ 8.74 µg/mL)
CC50 (HepG2 [15]; Homo sapiens, HepG2): > 50 µM
MIC [16]: 6.25 µM (≈ 2.18 µg/mL)
MIC [17]: 9.4 µM (≈ 3.28 µg/mL)
MIC [18]: 6.25 µM (≈ 2.18 µg/mL)
MIC [19]: 6.25 µM (≈ 2.18 µg/mL)
MIC [20]: 12.5 µM (≈ 4.37 µg/mL)
MIC [21]: 12.5 µM (≈ 4.37 µg/mL)

O=[N+]([O-])c1cn2c(n1)OC[C@@H](OCc1ccc(OC(F)(F)F)cc1)C2 [PRETOMANID]
MIC [5]: 0.39 µM (≈ 0.14 µg/mL)
CC50 (HepG2 [6]; Homo sapiens, HepG2): > 50 µM
MIC [7]: 0.1 µM (≈ 0.0359 µg/mL)
MIC90 [8]: 0.39 µM (≈ 0.14 µg/mL)
MIC90 [9]: 0.78 µM (≈ 0.28 µg/mL)
MIC [10]: 3.1 µM (≈ 1.11 µg/mL)
MIC90 [11]: 0.78 µM (≈ 0.28 µg/mL)
MIC [12]: 0.39 µM (≈ 0.14 µg/mL)
MIC [13]: 0.2 µM (≈ 0.0719 µg/mL)
MIC [14]: 0.39 µM (≈ 0.14 µg/mL)
CC50 (HepG2 [15]; Homo sapiens, HepG2): > 50 µM
MIC [16]: 0.3 µM (≈ 0.108 µg/mL)
MIC [17]: 0.6 µM (≈ 0.216 µg/mL)
MIC [18]: 0.2 µM (≈ 0.0719 µg/mL)
MIC [19]: 0.2 µM (≈ 0.0719 µg/mL)
MIC [20]: 0.15 µM (≈ 0.0539 µg/mL)
MIC [21]: 0.39 µM (≈ 0.14 µg/mL)

CCOC(=O)c1c(NC(=O)c2c(F)c(F)c(F)c(F)c2F)sc(C(N)=O)c1C
MIC [5]: 0.39 µM (≈ 0.165 µg/mL)
CC50 (HepG2 [6]): > 50 µM
CC50 (HepG2 [6]; Homo sapiens, HepG2): 48.8 µM
MIC [7]: 0.07 µM (≈ 0.0296 µg/mL)
MIC90 [8]: 0.78 µM (≈ 0.329 µg/mL)
MIC90 [9]: > 50 µM
MIC [10]: > 50 µM
MIC90 [11]: 6.25 µM (≈ 2.64 µg/mL)
MIC [12]: 0.1 µM (≈ 0.0422 µg/mL)
MIC90 [22]: 0.23 µM (≈ 0.0971 µg/mL)
MIC90 [23]: < 0.25 µM
MIC [13]: 0.07 µM (≈ 0.0296 µg/mL)
MIC [14]: 0.39 µM (≈ 0.165 µg/mL)
CC50 (HepG2 [15]): 23.5 µM
CC50 (HepG2 [15]; Homo sapiens, HepG2): 31.7 µM
MIC [16]: 0.39 µM (≈ 0.165 µg/mL)
CC50 (HepG2 [24]): 4.2 µM
MIC [17]: 0.39 µM (≈ 0.165 µg/mL)
MIC [18]: 0.3 µM (≈ 0.127 µg/mL)
MIC [19]: 0.05 µM (≈ 0.0211 µg/mL)
MIC [20]: 0.1 µM (≈ 0.0422 µg/mL)
MIC [21]: 0.1 µM (≈ 0.0422 µg/mL)

CC(=O)NC[C@H]1CN(c2ccc(N3CCSCC3)c(F)c2)C(=O)O1 [SUTEZOLID]
MIC [5]: 0.78 µM (≈ 0.276 µg/mL)
CC50 (HepG2 [6]; Homo sapiens, HepG2): > 50 µM
MIC [7]: 0.39 µM (≈ 0.138 µg/mL)
MIC90 [8]: 0.19 µM (≈ 0.0671 µg/mL)
MIC90 [9]: 0.39 µM (≈ 0.138 µg/mL)
MIC [10]: 0.78 µM (≈ 0.276 µg/mL)
MIC90 [11]: 0.39 µM (≈ 0.138 µg/mL)
MIC [12]: 1.2 µM (≈ 0.424 µg/mL)
MIC [13]: 0.2 µM (≈ 0.0707 µg/mL)
MIC [14]: 1.2 µM (≈ 0.424 µg/mL)
CC50 (HepG2 [15]; Homo sapiens, HepG2): > 50 µM
MIC [16]: 0.78 µM (≈ 0.276 µg/mL)
MIC [17]: 1.2 µM (≈ 0.424 µg/mL)
MIC [18]: 1.2 µM (≈ 0.424 µg/mL)
MIC [19]: 0.6 µM (≈ 0.212 µg/mL)
MIC [20]: 0.6 µM (≈ 0.212 µg/mL)
MIC [21]: 0.6 µM (≈ 0.212 µg/mL)

Brc1cncc(-c2cc(NCCCn3ccnc3)nc(-c3ccccc3)n2)c1
MIC [5]: 12.5 µM (≈ 5.44 µg/mL)
CC50 (HepG2 [6]): > 50 µM
CC50 (HepG2 [6]; Homo sapiens, HepG2): 43.6 µM
MIC [7]: 9.4 µM (≈ 4.09 µg/mL)
MIC90 [8]: 12.5 µM (≈ 5.44 µg/mL)
MIC90 [9]: > 50 µM
MIC [10]: > 50 µM
MIC90 [11]: 12.5 µM (≈ 5.44 µg/mL)
MIC [12]: 37 µM (≈ 16.1 µg/mL)
MIC [13]: 12.5 µM (≈ 5.44 µg/mL)
MIC [14]: 25 µM (≈ 10.9 µg/mL)
CC50 (HepG2 [15]): 28.3 µM
CC50 (HepG2 [15]; Homo sapiens, HepG2): 16.4 µM
MIC [16]: 6.25 µM (≈ 2.72 µg/mL)
MIC [17]: 12.5 µM (≈ 5.44 µg/mL)
MIC [18]: 9.4 µM (≈ 4.09 µg/mL)
MIC [19]: 6.25 µM (≈ 2.72 µg/mL)
MIC [20]: 12.5 µM (≈ 5.44 µg/mL)
MIC [21]: 4.7 µM (≈ 2.05 µg/mL)

Cc1cc(C)nc(-n2nc(C)cc2Nc2ccccc2)n1
IC50 (Plasmodium falciparum [1]): > 2 µM
IC50 (Plasmodium falciparum [3]): 0.22 µM
inhibition at 10 µM (HepG2 [4]): 7%

Cc1ccccc1CN1CCC(O)(c2ccc(Cl)c(C(F)(F)F)c2)CC1
MIC [5]: 0.39 µM (≈ 0.15 µg/mL)
CC50 (HepG2 [6]; Homo sapiens, HepG2): > 50 µM
MIC [7]: 0.6 µM (≈ 0.23 µg/mL)
MIC90 [8]: 3.12 µM (≈ 1.2 µg/mL)
MIC90 [9]: 12.5 µM (≈ 4.8 µg/mL)
MIC [10]: 25 µM (≈ 9.6 µg/mL)
MIC90 [11]: 3.12 µM (≈ 1.2 µg/mL)
MIC [12]: 0.39 µM (≈ 0.15 µg/mL)
MIC [13]: 0.3 µM (≈ 0.115 µg/mL)
MIC [14]: 0.39 µM (≈ 0.15 µg/mL)
CC50 (HepG2 [15]; Homo sapiens, HepG2): > 50 µM
MIC [16]: 0.78 µM (≈ 0.299 µg/mL)
MIC [17]: 1.2 µM (≈ 0.461 µg/mL)
MIC [18]: 0.78 µM (≈ 0.299 µg/mL)
MIC [19]: 0.6 µM (≈ 0.23 µg/mL)
MIC [20]: 0.3 µM (≈ 0.115 µg/mL)
MIC [21]: 0.39 µM (≈ 0.15 µg/mL)

COc1cc(CN2CCC3(C=Cc4ccccc43)CC2)cc2c1OCO2
MIC [5]: 0.78 µM (≈ 0.273 µg/mL)
CC50 (HepG2 [6]; Homo sapiens, HepG2): > 50 µM
MIC [7]: 1.56 µM (≈ 0.545 µg/mL)
MIC90 [8]: 6.25 µM (≈ 2.18 µg/mL)
MIC90 [9]: 12.5 µM (≈ 4.37 µg/mL)
MIC [10]: 12.5 µM (≈ 4.37 µg/mL)
MIC90 [11]: 6.25 µM (≈ 2.18 µg/mL)
MIC [12]: 1.2 µM (≈ 0.419 µg/mL)
MIC [13]: 0.6 µM (≈ 0.21 µg/mL)
MIC [14]: 0.78 µM (≈ 0.273 µg/mL)
CC50 (HepG2 [15]; Homo sapiens, HepG2): > 50 µM
MIC [16]: 2.3 µM (≈ 0.804 µg/mL)
MIC [17]: 2.3 µM (≈ 0.804 µg/mL)
MIC [18]: 2.3 µM (≈ 0.804 µg/mL)
MIC [19]: 1.56 µM (≈ 0.545 µg/mL)
MIC [20]: 0.78 µM (≈ 0.273 µg/mL)
MIC [21]: 2.3 µM (≈ 0.804 µg/mL)
